Consider six molecules from patent publication US20200046836A1, “Terpene Carrier” (priority 2015, published 2020).

Like-named read-outs stand apart in the source and are kept apart here. Some results are limits rather than exact numbers.

For data set [1] the following is noted: cited from earlier work.
For data set [2] the following is noted: reported; cited from earlier work.
The nature of data set [3]: Amount of lipophilic active ingredient that the carrier can hold in solution. The data set is classed as physicochemical. Conditions: Example 7.

Take `C=CC(=C)CCC=C(C)C` [Myrcene]: the “LD50 (Lethal Dose)” value in data set [1] (in vivo) was > 5000 mg/kg.

As to `C=C1CC/C=C(\C)CC[C@@H]2[C@@H]1CC2(C)C` [Beta-caryophyllene], in data set [1] (in vivo), the “LD50 (Lethal Dose)” value was > 5000 mg/kg.

For the molecule `CN1CCCC1c1cccnc1` (stereo not shown) [nicotine, reference compound], the “LD50 (Lethal Dose)” value in data set [1] (nicotine as comparison) is 40 to 60 mg/kg.

`C=CC(C)(O)CCC=C(C)C` (stereo not shown) [Linalool]: in data set [1] (in vivo), the “LD50 (Lethal Dose)” value was 3000 mg/kg.

As for `CCCCCc1cc(O)c2c(c1)OC(C)(CCC=C(C)C)C=C2` (stereo not shown) [CBC, cannabichromene], the “effectiveness relative to CBD in the treatment of anxiety and stress” value in data set [2] was “about ten times more effective than CBD”.

Turning to `C=C(C)[C@@H]1CCC(C)=C[C@H]1c1c(O)cc(CCCCC)cc1O` [CBD, cannabidiol], the “keeping CBD in solution in the propylene glycol/glycerine mixture” value in data set [3] (control carrier) is given as “difficult to maintain 10% by weight”. Moreover, in data set [3] (terpene mixture), the “CBD content of solution that could be prepared in the terpene mixture” value is “at least 30 % by weight”.
